{"source": "ChEMBL document CHEMBL1201862", "about": "“PubChem BioAssay data set” (2004)", "key": {"[1]": {"target": "Kallikrein-7 (Homo sapiens, UniProt P49862)", "sequence (P49862 whole entry)": "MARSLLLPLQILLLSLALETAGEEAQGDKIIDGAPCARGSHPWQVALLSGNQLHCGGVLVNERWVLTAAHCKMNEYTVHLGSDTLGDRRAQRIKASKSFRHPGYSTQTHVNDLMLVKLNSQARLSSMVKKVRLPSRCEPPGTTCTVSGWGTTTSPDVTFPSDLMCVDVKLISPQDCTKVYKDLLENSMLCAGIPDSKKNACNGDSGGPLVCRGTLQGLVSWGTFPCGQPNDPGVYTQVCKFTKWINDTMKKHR", "test": "Fluorescence Intensity-based biochemical primary high throughput dose response assay to identify activators of kallikrein-7 (K7) zymogen."}, "[2]": {"test": "EDANS-DABCYL fluorescence interference, concentration series, dose response, artefact control for kallikrein-7 zymogen activator project, biochemical, fluorescence intensity, triplicate (AID 720493)"}, "[3]": {"target": "Heat shock protein HSP 90-alpha (Homo sapiens, UniProt P07900)", "test": "Luminescence-based dose response biochemical high throughput screening assay for inhibitors of the Heat Shock Protein 90 (HSP90). [Related pubchem assays: 1831 (Summary AID.), 1846 (Confirmation screen.), 1789 (Primary screen.)]"}, "[4]": {"test_system": "Vero", "test": "cells", "format": "functional", "conditions": "Chlorocebus sabaeus"}, "[5]": {"test": "Late stage assay provider results from the probe development effort to identify selective inhibitors of heat shock protein 90 (HSP90): Absorbance-based cell proliferation assay in SKBR3 cells.", "format": "functional", "conditions": "SK-BR-3"}, "[6]": {"test": "Late stage assay provider results from the probe development effort to identify selective inhibitors of heat shock protein 90 (HSP90): Absorbance-based cell proliferation assay in MCF7 cells.", "format": "functional"}, "[7]": {"target": "Galanin receptor type 3 (Homo sapiens, UniProt O60755)", "sequence (O60755 whole entry)": "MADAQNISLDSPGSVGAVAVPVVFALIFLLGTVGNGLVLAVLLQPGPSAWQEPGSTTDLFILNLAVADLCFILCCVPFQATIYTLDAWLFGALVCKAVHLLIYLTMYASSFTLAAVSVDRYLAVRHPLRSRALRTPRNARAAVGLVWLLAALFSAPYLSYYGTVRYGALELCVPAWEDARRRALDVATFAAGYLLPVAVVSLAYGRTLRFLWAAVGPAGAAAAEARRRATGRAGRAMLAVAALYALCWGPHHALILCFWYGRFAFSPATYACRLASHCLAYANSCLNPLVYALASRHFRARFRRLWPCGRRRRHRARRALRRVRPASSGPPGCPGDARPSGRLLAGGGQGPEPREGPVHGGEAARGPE", "test": "Fluorescence-based cell-based primary high throughput dose response assay to identify antagonists of the Galanin Receptor 3 (GalR3).", "format": "functional"}, "[8]": {"test": "cells", "format": "functional, cell-based", "conditions": "HEK-CNG"}, "[9]": {"test_system": "HEK293", "test": "cells", "conditions": "Homo sapiens"}, "[10]": {"test_system": "HEK293", "test": "cells", "conditions": "Homo sapiens", "remark": "listed apart in the source"}, "[11]": {"target": "Scavenger receptor class B member 1 (Mus musculus, UniProt Q61009)", "sequence (Q61009 whole entry)": "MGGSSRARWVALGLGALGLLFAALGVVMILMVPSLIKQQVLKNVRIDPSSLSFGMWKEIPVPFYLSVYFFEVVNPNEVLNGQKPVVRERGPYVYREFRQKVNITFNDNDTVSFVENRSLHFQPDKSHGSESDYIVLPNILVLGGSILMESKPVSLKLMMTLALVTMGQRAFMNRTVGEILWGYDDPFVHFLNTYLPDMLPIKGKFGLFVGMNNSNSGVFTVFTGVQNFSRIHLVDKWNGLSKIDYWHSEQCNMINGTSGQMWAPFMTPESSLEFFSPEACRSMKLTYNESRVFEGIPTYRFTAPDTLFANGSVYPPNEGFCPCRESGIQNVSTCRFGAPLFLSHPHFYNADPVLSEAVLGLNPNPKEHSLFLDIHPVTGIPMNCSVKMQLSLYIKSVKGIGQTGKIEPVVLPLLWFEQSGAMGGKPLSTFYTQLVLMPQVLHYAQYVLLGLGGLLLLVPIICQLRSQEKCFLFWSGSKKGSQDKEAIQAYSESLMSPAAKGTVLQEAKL", "test": "inhibitors of SR-BI-mediated HDL uptake, dose response, cell-based, ldlA[mSR-BI] CHO, DiI fluorescence, dry powder, set 10 (AID 624029)", "format": "functional"}, "[12]": {"test_system": "HeLa", "test": "HeLa cell cytotoxicity, dose response, cytotoxicity control, ATP luminescence, cherry-pick samples (AID 687004)", "format": "functional, cell-based", "conditions": "Homo sapiens"}, "[13]": {"target": "Paired box protein Pax-8 (Homo sapiens, UniProt Q06710)", "sequence (Q06710 whole entry)": "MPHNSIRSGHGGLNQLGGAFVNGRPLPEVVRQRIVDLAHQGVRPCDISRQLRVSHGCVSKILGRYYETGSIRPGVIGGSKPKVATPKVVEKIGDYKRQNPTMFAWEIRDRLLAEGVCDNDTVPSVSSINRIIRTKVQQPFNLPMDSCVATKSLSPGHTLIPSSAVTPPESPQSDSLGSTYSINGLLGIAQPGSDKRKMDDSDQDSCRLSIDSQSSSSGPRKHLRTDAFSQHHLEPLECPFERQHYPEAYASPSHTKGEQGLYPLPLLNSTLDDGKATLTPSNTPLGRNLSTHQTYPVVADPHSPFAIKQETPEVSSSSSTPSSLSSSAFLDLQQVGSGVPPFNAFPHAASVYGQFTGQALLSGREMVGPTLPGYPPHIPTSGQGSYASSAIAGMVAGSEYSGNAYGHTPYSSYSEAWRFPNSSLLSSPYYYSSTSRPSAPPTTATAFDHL", "test": "inhibitors of PAX8-driven TPO luciferase reporter, dose response, RMG-I cells, cherry-pick (AID 687027);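 further: luciferase reporter driven by Pax8 target thyroperoxidase promoter measured by SteadyGlo luminescence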", "format": "functional, cell-based"}, "[14]": {"test": "IGROV1 ovarian cancer cell cytotoxicity, dose response, PAX8 inhibitor project, plate reader, dry powder samples (AID 743043)", "format": "functional, cell-based", "conditions": "IGROV-1"}, "[15]": {"test": "LMP1-driven NF-kB reporter inhibition, dose response, cell-based, luciferase reporter, luminescence, dry powder, set 2 (AID 624376)", "format": "functional"}, "[16]": {"test": "HEK293 cell cytotoxicity, dose response, cytotoxicity control, cherry-picks, set 5 (AID 1053117)", "format": "functional, cell-based"}, "[17]": {"test": "A549 cell cytotoxicity, dose response, cytotoxicity control, cherry-picks, 26 µM top dose (AID 1053119)", "format": "functional, cell-based"}, "[18]": {"test": "HEK293 cell cytotoxicity, dose response, cytotoxicity control, ATP luminescence, dry powder, Set6 (AID 743142)", "format": "functional, cell-based"}, "[19]": {"target": "COUP transcription factor 2 (Homo sapiens, UniProt P24468)", "sequence (P24468 whole entry)": "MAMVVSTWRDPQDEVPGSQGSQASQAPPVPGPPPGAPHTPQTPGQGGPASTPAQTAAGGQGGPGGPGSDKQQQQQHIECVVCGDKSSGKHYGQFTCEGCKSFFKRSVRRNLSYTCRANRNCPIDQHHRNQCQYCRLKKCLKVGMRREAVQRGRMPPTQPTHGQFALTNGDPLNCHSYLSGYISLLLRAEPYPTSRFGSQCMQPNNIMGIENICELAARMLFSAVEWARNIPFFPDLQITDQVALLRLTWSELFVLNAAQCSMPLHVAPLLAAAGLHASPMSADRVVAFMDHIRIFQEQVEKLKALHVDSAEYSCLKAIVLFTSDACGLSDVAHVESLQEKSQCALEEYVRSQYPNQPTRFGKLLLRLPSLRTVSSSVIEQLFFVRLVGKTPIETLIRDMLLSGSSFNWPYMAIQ", "test": "Luminescence-based cell-based high throughput dose response assay to identify inhibitors of COUP-TFII (NR2F2).", "format": "functional"}}, "note": "Activity calls are given as the source filed them."}
{"smiles": "Cc1ccc(C(=O)Nc2ccc(NC(=O)c3ccc(C)o3)cc2)o1", "values": [{"measurement": "EC50", "setting": "[1]", "result": "12.7 µM (inactive)"}, {"measurement": "EC50", "setting": "[2]", "result": "> 7.72 µM (active)"}]}
{"smiles": "Cc1cc(NC(=O)c2coc(=O)c(Br)c2)ccc1C(C)C", "values": [{"measurement": "IC50", "setting": "[3]", "result": "0.685 µM (active)"}, {"measurement": "CC50", "setting": "[4]", "result": "> 25 µM (active)"}, {"measurement": "IC50", "setting": "[5]", "result": "18.8 µM (inactive)"}, {"measurement": "IC50", "setting": "[6]", "result": "8.9 µM (active)"}]}
{"smiles": "CCc1nc2sc(C#N)c(N)c2c2c1CCCC2", "values": [{"measurement": "IC50", "setting": "[7]", "result": "> 3.32 µM (active)"}, {"measurement": "EC50", "setting": "[8]", "result": "> 29.9 µM (inactive)"}, {"measurement": "EC50", "setting": "[9]", "result": "> 59.6 µM (inactive)"}, {"measurement": "EC50", "setting": "[10]", "result": "> 59.6 µM (inactive)"}]}
{"smiles": "CC(C)NC(=O)Nc1ccc2c(c1)C(=O)N([C@H](C)CO)C[C@@H](C)[C@@H](CN(C)S(=O)(=O)c1ccc(Cl)cc1)O2", "values": [{"measurement": "AC50", "setting": "[11]", "result": "39.9 µM (active)"}]}
{"smiles": "C[C@@H]1CN([C@@H](C)CO)C(=O)Cc2cc(NC(=O)Nc3cccc4ccccc34)ccc2O[C@@H]1CN(C)S(=O)(=O)c1cccs1", "values": [{"measurement": "AC50", "setting": "[12]", "result": "32.3 µM (active)"}]}
{"smiles": "O=C(C[C@@H]1CC[C@@H]2[C@H](COC[C@@H](O)CN2C(=O)Nc2ccc(C(F)(F)F)cc2)O1)NC1Cc2ccccc2C1", "values": [{"measurement": "AC50", "setting": "[13]", "result": "5.62 µM (active)"}, {"measurement": "AC50", "setting": "[14]", "result": "56.8 µM (active)"}]}
{"smiles": "CC(C)(C)[S@@+]([O-])N1Cc2cc(C(=O)NCc3ccccc3F)nc(-c3cccc(-c4ccncc4)c3)c2[C@H]1CCO", "values": [{"measurement": "AbsAC35", "setting": "[15]", "result": 50.48, "unit": "µM"}, {"measurement": "AC50", "setting": "[16]", "result": "> 52 µM (inactive)"}, {"measurement": "AC50", "setting": "[17]", "result": "32.2 µM (active)"}]}
{"smiles": "O=C(CCNC(=O)c1ccc(F)cc1)N[C@@H]1CCCc2ccccc21", "values": [{"measurement": "AC50", "setting": "[18]", "result": "16.5 µM (active)"}]}
{"smiles": "Cc1cc(C)c(O)c(C(=O)CC2CC(=O)NC(=O)C2)c1", "values": [{"measurement": "IC50", "setting": "[19]", "result": "9.88 µM (active)"}]}
